Assay results as given in EP3046573B1, “AMYLIN ANALOGUES” (Zealand Pharma A/S, priority 2013, dated 2015).
Like-named read-outs stand apart in the source and are kept apart here. Numbered stars: 1 amine (or outer) side, 2 acyl side, 3 side chain; on linkers, the order of the positions; unused ones are H or OH. Bridge positions count the residues as written; N and C are the ends. Square brackets hold non-standard residues; d marks the D form. Peptide text beside a SMILES is read from it. * marks the point of attachment. C20 diacid = O=C(O)CCCCCCCCCCCCCCCCCCC(=O)*; γGlu = O=C(O)[C@H](CCC(=O)[*:2])N[*:1]; NMeI = CC[C@H](C)[C@H](NC)C(=O)O; Sar = CNCC(=O)O

Tests used:
[1] = target: T1, human calcitonin receptor (hCTR2) (Homo sapiens, UniProt P30988); assay: hCTR2 assay: induction of cAMP (AlphaScreen cAMP Assay kit) in COS7 cells expressing hCTR2; format: cell-based
T1 construct: expressed in transfected cells
T1 sequence (P30988 25-474): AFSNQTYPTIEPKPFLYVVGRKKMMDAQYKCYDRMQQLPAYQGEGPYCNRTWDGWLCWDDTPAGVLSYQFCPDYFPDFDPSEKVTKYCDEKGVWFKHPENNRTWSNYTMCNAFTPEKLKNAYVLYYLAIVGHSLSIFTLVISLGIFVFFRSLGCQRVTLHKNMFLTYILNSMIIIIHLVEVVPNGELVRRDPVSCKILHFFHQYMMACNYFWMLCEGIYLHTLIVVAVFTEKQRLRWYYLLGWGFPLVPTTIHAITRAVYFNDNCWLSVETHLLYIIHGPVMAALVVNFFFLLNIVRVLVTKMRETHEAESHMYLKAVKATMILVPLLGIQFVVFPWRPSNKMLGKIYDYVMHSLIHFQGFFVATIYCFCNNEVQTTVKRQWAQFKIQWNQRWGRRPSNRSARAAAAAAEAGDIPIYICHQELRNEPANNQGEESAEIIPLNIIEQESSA
In short: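 Functional agonism is measured as cAMP accumulation in a COS7 line stably transfected with hCTR2, lacking endogenous RAMPs. Peptides act for 15 min at 37° C with IBMX present, and curves are fitted with a 4-parameter logistic model.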

[2] = target: T2, human amylin receptor 3 (hAMYR3) consisting of hCTR2 co-expressed with human Receptor Activity Modifying Protein 3 (hRAMP3) (Homo sapiens, UniProt O60896+P30988); assay: hAMYR3 assay: induction of cAMP (AlphaScreen cAMP Assay kit) in COS7 cells expressing hAMYR3; format: cell-based
T2 construct: expressed in transfected cells
T2 sequence (P30988 25-474): T1 sequence (P30988 25-474)
T2 sequence (O60896 24-148 partner): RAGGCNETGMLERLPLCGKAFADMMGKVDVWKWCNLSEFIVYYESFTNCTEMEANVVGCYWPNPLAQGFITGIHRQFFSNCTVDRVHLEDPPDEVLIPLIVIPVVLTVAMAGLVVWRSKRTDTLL
In short: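 Stable COS7 clone co-expressing hCTR2 and hRAMP3, stimulated 15 min at 37° C with increasing peptide in Tyrode buffer pH 7.4 with 100 µM IBMX and 0.1% casein. cAMP measured by AlphaScreen after lysis; EC50 and % efficacy versus pramlintide from 4PL fit.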

[3] = Solubility assessment (turbidity absorbance at 325 nm); format: physicochemical; conditions: stock 2 mg/ml diluted 1:1, ambient temperature (typically 25°C), n=1; for Solubility, Acetate buffer pH 4: 100 mM acetate buffer pH 4.0; for Solubility, Acetate buffer pH 5: 100 mM acetate buffer pH 5.0; for Solubility, Histidine buffer pH 6: 100 mM histidine buffer pH 6.0; for Solubility, Histidine buffer pH 7: 100 mM histidine buffer pH 7.0; for Solubility, Phosphate buffer pH 6: 100 mM phosphate buffer pH 6.0; for Solubility, Phosphate buffer pH 7: 100 mM phosphate buffer pH 7.0; for Solubility, Phosphate buffer pH 7.5: 100 mM phosphate buffer pH7.5
In short: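 Peptide stock (2 mg/ml, water pH 2.5) diluted 1:1 into 100 mM acetate (pH 4.0, 5.0), histidine (pH 6.0, 7.0) or phosphate (pH 6.0–7.5) buffer; absorbance at 325 nm read at about 25°C, n=1. A325 ≤ 0.02 taken as solubility ≥ 1 mg/ml.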

[4] = cAMP induction in COS7 cells expressing hAMYR3, average of a minimum of 3 determinations, read-out: hAMY R3 EC50

SMILES	EC50 ([1]; cAMP induction in COS7 cells expressing hCTR2, average of a minimum of 3 determinations, read-out: hCTR2 EC50) [nM]	EC50 [2, 4] [nM]	Solubility, Acetate buffer pH 4 [3]	Solubility, Acetate buffer pH 5 [3]	Solubility, Histidine buffer pH 6 [3]	Solubility, Histidine buffer pH 7 [3]	Solubility, Phosphate buffer pH 6 [3]	Solubility, Phosphate buffer pH 7 [3]	Solubility, Phosphate buffer pH 7.5 [3]	EC50 [1] [nM]	EC50 [2] [nM]
CC[C@H](C)[C@@H](C(=O)N[C@@H](CC(C)C)C(=O)N[C@@H](CO)C(=O)N[C@@H](CO)C(=O)N[C@H](C(=O)N[C@@H](CCC(=O)O)C(=O)N[C@H](C(=O)NCC(=O)N[C@@H](CO)C(=O)N[C@@H](CCC(=O)O)C(=O)N[C@H](C(=O)N1CCC[C@H]1C(N)=O)[C@@H](C)O)C(C)C)[C@@H](C)O)N(C)C(=O)[C@H](C)NC(=O)CN(C)C(=O)[C@H](Cc1ccccc1)NC(=O)[C@H](CO)NC(=O)[C@H](CO)NC(=O)[C@H](CO)NC(=O)[C@H](CO)NC(=O)[C@H](CCCNC(=N)N)NC(=O)[C@H](Cc1c[nH]cn1)NC(=O)[C@H](CC(C)C)NC(=O)[C@H](Cc1ccccc1)NC(=O)[C@H](CCC(=O)O)NC(=O)[C@H](C)NC(=O)[C@H](CC(C)C)NC(=O)[C@H](CCCNC(=N)N)NC(=O)[C@H](CO)NC(=O)[C@@H](NC(=O)[C@H](C)NC(=O)[C@@H]1CSSC[C@H](NC(=O)[C@H](CCCNC(=N)N)NC(=O)CC[C@H](NC(=O)CCCCCCCCCCCCCCCCCCC(=O)O)C(=O)O)C(=O)N[C@@H](CO)C(=O)N[C@@H]([C@@H](C)O)C(=O)N[C@@H](C)C(=O)N[C@@H]([C@@H](C)O)C(=O)N1)[C@@H](C)O [Compound 133, [19CD]-isoGlu-RC()STATC()ATSRLAEFLHRSSSSF-Gly(Me)-A-Ile(Me)-LSSTEVGSETP-NH2] ({C20 diacid-γGlu}-RCSTATCATSRLAEFLHRSSSSF[Sar]A[NMeI]LSSTEVGSETP-NH2; disulfide 2-7)	0.3	0.36	SS (SS indicates solubility ≥ 1mg/ml)	SS (SS indicates solubility ≥ 1mg/ml)	SS (SS indicates solubility ≥ 1mg/ml)	SS (SS indicates solubility ≥ 1mg/ml)	SS (SS indicates solubility ≥ 1mg/ml)	SS (SS indicates solubility ≥ 1mg/ml)	SS (SS indicates solubility ≥ 1mg/ml)	–	–
CC[C@H](C)[C@@H](C(=O)N[C@@H](CC(C)C)C(=O)N[C@@H](CO)C(=O)N[C@@H](CO)C(=O)N[C@H](C(=O)N[C@@H](CCC(=O)O)C(=O)N[C@H](C(=O)NCC(=O)N[C@@H](CO)C(=O)N[C@@H](CCC(=O)O)C(=O)N[C@H](C(=O)N1CCC[C@H]1C(N)=O)[C@@H](C)O)C(C)C)[C@@H](C)O)N(C)C(=O)[C@H](C)NC(=O)CN(C)C(=O)[C@H](Cc1ccccc1)NC(=O)[C@H](CO)NC(=O)[C@H](CO)NC(=O)[C@H](CO)NC(=O)[C@H](CO)NC(=O)[C@H](CCCNC(=N)N)NC(=O)[C@H](Cc1c[nH]cn1)NC(=O)[C@H](CC(C)C)NC(=O)[C@H](Cc1ccccc1)NC(=O)[C@H](CCC(=O)O)NC(=O)[C@H](C)NC(=O)[C@H](CC(C)C)NC(=O)[C@H](CCCNC(=N)N)NC(=O)[C@H](C)NC(=O)[C@@H](NC(=O)[C@H](C)NC(=O)[C@@H]1CSSC[C@H](NC(=O)[C@H](CCCNC(=N)N)NC(=O)CC[C@H](NC(=O)CCCCCCCCCCCCCCCCCCC(=O)O)C(=O)O)C(=O)N2CCC[C@H]2C(=O)N[C@@H]([C@@H](C)O)C(=O)N[C@@H](C)C(=O)N[C@@H]([C@@H](C)O)C(=O)N1)[C@@H](C)O [Compound 147, [19CD]-isoGlu-RC()PTATC()ATARLAEFLHRSSSSF-Gly(Me)-A-Ile(Me)-LSSTEVGSETP-NH2] ({C20 diacid-γGlu}-RCPTATCATARLAEFLHRSSSSF[Sar]A[NMeI]LSSTEVGSETP-NH2; disulfide 2-7)	–	0.16	SS (SS indicates solubility ≥ 1mg/ml)	II (II indicates solubility ≤ 1 mg/ml)	SS (SS indicates solubility ≥ 1mg/ml)	SS (SS indicates solubility ≥ 1mg/ml)	SS (SS indicates solubility ≥ 1mg/ml)	SS (SS indicates solubility ≥ 1mg/ml)	SS (SS indicates solubility ≥ 1mg/ml)	0.16	–
CC[C@H](C)[C@@H](C(=O)N[C@@H](CC(C)C)C(=O)N[C@@H](CO)C(=O)N[C@@H](CO)C(=O)N[C@H](C(=O)N[C@@H](CC(N)=O)C(=O)N[C@H](C(=O)NCC(=O)N[C@@H](CO)C(=O)N[C@@H](CC(N)=O)C(=O)N[C@H](C(=O)N[C@H](C(N)=O)C(C)C)[C@@H](C)O)C(C)C)[C@@H](C)O)N(C)C(=O)[C@H](C)NC(=O)CN(C)C(=O)[C@H](Cc1ccccc1)NC(=O)[C@H](CC(N)=O)NC(=O)[C@H](CC(N)=O)NC(=O)[C@H](CO)NC(=O)[C@H](CO)NC(=O)[C@H](CCCNC(=N)N)NC(=O)[C@H](Cc1c[nH]cn1)NC(=O)[C@H](CC(C)C)NC(=O)[C@H](Cc1ccccc1)NC(=O)[C@H](CCC(=O)O)NC(=O)[C@H](C)NC(=O)[C@H](CC(C)C)NC(=O)[C@H](CCCNC(=N)N)NC(=O)[C@H](CCC(N)=O)NC(=O)[C@@H](NC(=O)[C@H](C)NC(=O)[C@@H]1CSSC[C@H](NC(=O)[C@H](CCCNC(=N)N)NC(=O)CC[C@H](NC(=O)CCCCCCCCCCCCCCCCCCC(=O)O)C(=O)O)C(=O)N[C@@H](CC(N)=O)C(=O)N[C@@H]([C@@H](C)O)C(=O)N[C@@H](C)C(=O)N[C@@H]([C@@H](C)O)C(=O)N1)[C@@H](C)O [Compound 98, [19CD]-isoGlu-RC()NTATC()ATQRLAEFLHRSSNNF-Gly(Me)-A-Ile(Me)-LSSTNVGSNTV-NH2] ({C20 diacid-γGlu}-RCNTATCATQRLAEFLHRSSNNF[Sar]A[NMeI]LSSTNVGSNTV-NH2; disulfide 2-7)	–	–	SS (SS indicates solubility ≥ 1mg/ml)	SS (SS indicates solubility ≥ 1mg/ml)	SS (SS indicates solubility ≥ 1mg/ml)	SS (SS indicates solubility ≥ 1mg/ml)	II (II indicates solubility ≤ 1 mg/ml)	SS (SS indicates solubility ≥ 1mg/ml)	SS (SS indicates solubility ≥ 1mg/ml)	0.35	1.7
